Data taken from ChEMBL document CHEMBL1201862, “PubChem BioAssay data set” (2004).
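1) Cells in 96-well plates. 2) Compound, 48 h, 5 concentrations. 3) Linear interpolation between surrounding doses. 4) Unreached endpoint = highest concentration. GI50: concentration for 50% inhibition of growth.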 Activity calls are given as the source filed them. No stated cut-off is given here; in the data, active = GI50 up to about 1.1 µM and inactive = higher.

Tests used:
Experiment in all cases: NCI anticancer screen, dose series, 48 h
K562 = system: K562
HL-60 = system: HL-60
U-251 = system: U-251
SR = system: SR
PC-3 = system: PC-3
SF-268 = system: SF-268
BT-549 = system: BT-549
SF-539 = system: SF-539
CCRF-CEM = system: CCRF-CEM
NCI-H460 = system: NCI-H460
RXF 393 = system: RXF 393
NCI-H23 = system: NCI-H23
HT-29 = system: HT-29
Hs-578T = system: Hs-578T
MCF7 = system: MCF7
Malme-3M = system: Malme-3M
IGROV-1 = system: IGROV-1
OVCAR-4 = system: OVCAR-4
COLO 205 = system: COLO 205
M14 = system: M14

Measured: GI50

Nc1nc(Cl)cc(NCC2(O)CC2)n1
inactive: K562 > 100 µM | HL-60 > 100 µM | U-251 > 100 µM | SR > 100 µM | PC-3 > 100 µM | SF-268 > 100 µM | BT-549 > 100 µM | SF-539 > 100 µM | CCRF-CEM > 100 µM | NCI-H460 > 100 µM | RXF 393 > 100 µM | NCI-H23 > 100 µM | HT-29 > 100 µM | Hs-578T > 100 µM | MCF7 > 100 µM | Malme-3M > 100 µM | IGROV-1 > 100 µM | OVCAR-4 > 100 µM

CN(C)/C=N/c1ccc2[nH]c3ccccc3c2c1
inactive: K562 20.4 µM | HL-60 18.1 µM | U-251 28.8 µM | SR 12.2 µM | PC-3 36.1 µM | COLO 205 16.6 µM | SF-268 64.6 µM | BT-549 > 100 µM | SF-539 20.8 µM | CCRF-CEM 30.9 µM | RXF 393 25.8 µM | NCI-H23 49.3 µM | HT-29 19.8 µM | Hs-578T 38.5 µM | M14 15.1 µM | MCF7 32.1 µM | Malme-3M 22.1 µM | IGROV-1 43.5 µM | OVCAR-4 > 100 µM

COc1nc(C)nc2sc3c(c12)CCCC3
inactive: K562 > 100 µM | HL-60 > 100 µM | U-251 > 100 µM | SR > 100 µM | PC-3 > 100 µM | COLO 205 > 100 µM | SF-268 > 100 µM | BT-549 > 100 µM | NCI-H460 > 100 µM | RXF 393 > 100 µM | NCI-H23 > 100 µM | HT-29 > 100 µM | Hs-578T > 100 µM | MCF7 > 100 µM | Malme-3M > 100 µM | IGROV-1 > 100 µM | OVCAR-4 > 100 µM

O=c1cnc2cc3ccccc3cc2[nH]1
inactive: K562 > 100 µM | HL-60 > 100 µM | U-251 > 100 µM | SR > 100 µM | PC-3 > 100 µM | COLO 205 > 100 µM | SF-268 > 100 µM | BT-549 > 100 µM | CCRF-CEM > 100 µM | NCI-H460 > 100 µM | RXF 393 > 100 µM | NCI-H23 > 100 µM | HT-29 > 100 µM | Hs-578T > 100 µM | M14 > 100 µM | MCF7 > 100 µM | Malme-3M > 100 µM | IGROV-1 > 100 µM | OVCAR-4 > 100 µM

COc1ccc2nc3c(nc2c1)C(C)(C)C=C3c1ccc(Br)cc1
inactive: K562 > 10 µM | HL-60 > 100 µM | U-251 97.9 µM | SR > 100 µM | PC-3 > 100 µM | COLO 205 > 100 µM | SF-268 > 100 µM | BT-549 > 100 µM | SF-539 97.3 µM | CCRF-CEM > 100 µM | NCI-H460 > 100 µM | RXF 393 > 100 µM | HT-29 > 100 µM | Hs-578T > 100 µM | M14 > 100 µM | MCF7 > 100 µM | Malme-3M > 100 µM | IGROV-1 > 100 µM | OVCAR-4 76.9 µM

CC(=O)/N=C1/N(/C=C2\C(=O)Oc3ccccc3C2=O)C(=O)/C(=C/c2cccc(Cl)c2Cl)N1C
inactive: K562 10.7 µM | HL-60 3.99 µM | U-251 23.1 µM | SR 10.8 µM | PC-3 35.3 µM | COLO 205 31.3 µM | SF-268 20.4 µM | BT-549 20.4 µM | SF-539 4.42 µM | CCRF-CEM 11.1 µM | RXF 393 31.6 µM | NCI-H23 23.9 µM | HT-29 19.1 µM | Hs-578T 3.87 µM | M14 14.8 µM | MCF7 25.7 µM | Malme-3M 33.6 µM | IGROV-1 21.4 µM

CC(C)(C)C(=O)OC(N)/C=C/c1ccccc1 (configuration not stated)
inactive: HL-60 76.2 µM | U-251 > 100 µM | SR 94 µM | PC-3 > 100 µM | COLO 205 > 100 µM | BT-549 > 100 µM | SF-539 > 100 µM | CCRF-CEM > 100 µM | NCI-H460 > 100 µM | RXF 393 > 100 µM | NCI-H23 > 100 µM | HT-29 > 100 µM | Hs-578T > 100 µM | M14 > 100 µM | MCF7 > 100 µM | Malme-3M > 100 µM | IGROV-1 > 100 µM | OVCAR-4 > 100 µM

CCc1nc(N)nc(N)c1-c1ccc(N2CCNCC2)cc1
inactive: K562 24.2 µM | HL-60 34.4 µM | U-251 88.7 µM | SR 23.4 µM | PC-3 49.3 µM | COLO 205 18.9 µM | SF-268 84.7 µM | BT-549 64 µM | SF-539 77.3 µM | CCRF-CEM 33.7 µM | NCI-H460 33.1 µM | RXF 393 64.9 µM | NCI-H23 46 µM | HT-29 38.6 µM | Hs-578T > 100 µM | M14 34.9 µM | MCF7 47.3 µM | IGROV-1 64.7 µM | OVCAR-4 74.8 µM
